Key:
Assay in all cases: cells
Details in all cases: Homo sapiens
[1] = system: Calu-6; format: functional, cell-based;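 also: growth of human Calu-6 cells, read out by a cell viability assay, IC50 marking inhibition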
Description: SANGER: Inhibition of human Calu-6 cell growth in a cell viability assay.

[2] = system: J-RT3-T3-5; format: functional, cell-based;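 also: cell viability assay measuring growth inhibition of human J-RT3-T3-5 cells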
Description: SANGER: Inhibition of human J-RT3-T3-5 cell growth in a cell viability assay.

[3] = system: NCI-H1581; format: functional, cell-based;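 also: cell growth inhibition read out by a viability assay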
Description: SANGER: Inhibition of human NCI-H1581 cell growth in a cell viability assay.

[4] = system: MLMA; format: functional, cell-based;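 also: growth inhibition of MLMA cells (human), determined through a cell viability readout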
Description: SANGER: Inhibition of human MLMA cell growth in a cell viability assay.

[5] = system: TE-10; format: functional, cell-based;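 also: growth inhibition of TE-10 cells, measured by a cell viability assay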
Description: SANGER: Inhibition of human TE-10 cell growth in a cell viability assay.

[6] = system: LU-134-A; format: functional, cell-based
Description: SANGER: Inhibition of human LU-134-A cell growth in a cell viability assay.

[7] = system: A3-KAW; format: functional, cell-based;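 also: growth inhibition of human A3-KAW cells, read out with a cell viability assay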
Description: SANGER: Inhibition of human A3-KAW cell growth in a cell viability assay.

[8] = system: QIMR-WIL; format: functional, cell-based;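 also: growth inhibition of QIMR-WIL cells, read out with a cell viability assay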
Description: SANGER: Inhibition of human QIMR-WIL cell growth in a cell viability assay.

[9] = system: SK-N-FI; format: functional, cell-based;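 also: cell viability assay measuring growth inhibition of human SK-N-FI cells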
Description: SANGER: Inhibition of human SK-N-FI cell growth in a cell viability assay.

[10] = system: SHP77; format: functional, cell-based, SHP-77;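 also: growth inhibition of human SHP-77 cells measured by a cell viability assay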
Description: SANGER: Inhibition of human SHP-77 cell growth in a cell viability assay.

[11] = system: MZ7-mel; format: functional, cell-based;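 also: growth inhibition of human MZ7-mel cells, measured by a cell viability assay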
Description: SANGER: Inhibition of human MZ7-mel cell growth in a cell viability assay.

[12] = system: ES5; format: functional, cell-based;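 also: growth inhibition of human ES5 cells, read out by a cell viability assay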
Description: SANGER: Inhibition of human ES5 cell growth in a cell viability assay.

[13] = system: KALS-1; format: functional, cell-based;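 also: growth inhibition of KALS-1 cells, determined with a cell viability assay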
Description: SANGER: Inhibition of human KALS-1 cell growth in a cell viability assay.

[14] = system: SK-PN-DW; format: functional, cell-based;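 also: growth inhibition measured with a viability assay on these cells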
Description: SANGER: Inhibition of human SK-PN-DW cell growth in a cell viability assay.

[15] = system: MV4-11; format: functional, cell-based, MV-4-11;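 also: cell viability readout measuring growth inhibition of human MV-4-11 cells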
Description: SANGER: Inhibition of human MV-4-11 cell growth in a cell viability assay.

[16] = system: NTERA-2-cl-D1; format: functional, cell-based;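 also: inhibition of cell growth, measured with a cell viability assay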
Description: SANGER: Inhibition of human NTERA-S-cl-D1 cell growth in a cell viability assay.

[17] = system: HL-60; format: functional, cell-based;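 also: growth inhibition of human HL-60 cells, read out with a cell viability assay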
Description: SANGER: Inhibition of human HL-60 cell growth in a cell viability assay.

[18] = system: L-363; format: functional, cell-based
Description: SANGER: Inhibition of human L-363 cell growth in a cell viability assay.

[19] = system: EW-1; format: functional, cell-based;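 also: growth inhibition of the human EW-1 cell line, read out by a cell viability assay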
Description: SANGER: Inhibition of human EW-1 cell growth in a cell viability assay.

[20] = system: SNU1; format: functional, cell-based;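 also: growth inhibition of human NCI-SNU-1 cells, measured with a cell viability assay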
Description: SANGER: Inhibition of human NCI-SNU-1 cell growth in a cell viability assay.

[21] = system: K5; format: functional, cell-based
Description: SANGER: Inhibition of human K5 cell growth in a cell viability assay.

[22] = system: OVCAR-4; format: functional, cell-based;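 also: growth inhibition of human OVCAR-4 cells, measured with a cell viability assay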
Description: SANGER: Inhibition of human OVCAR-4 cell growth in a cell viability assay.

[23] = system: DOHH-2; format: functional, cell-based;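 also: growth inhibition of human DOHH-2 cells, read out with a cell viability assay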
Description: SANGER: Inhibition of human DOHH-2 cell growth in a cell viability assay.

[24] = system: Lu-65; format: functional, cell-based;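 also: growth inhibition of Lu-65 cancer cells, read out by a cell viability assay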
Description: SANGER: Inhibition of human LU-65 cell growth in a cell viability assay.

[25] = system: KM12; format: functional, cell-based;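 also: KM12 cell growth inhibition, read out with a cell viability assay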
Description: SANGER: Inhibition of human KM12 cell growth in a cell viability assay.

[26] = system: KARPAS-45; format: functional, cell-based;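 also: inhibition of cell line growth, read out through a viability assay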
Description: SANGER: Inhibition of human KARPAS-45 cell growth in a cell viability assay.

[27] = system: CP66-MEL; format: functional, cell-based;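 also: growth inhibition of CP66-MEL cells determined in a cell viability assay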
Description: SANGER: Inhibition of human CP66-MEL cell growth in a cell viability assay.

[28] = system: LC-2-ad; format: functional, cell-based;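 also: growth inhibition of human LC-2-ad cells, read out with a cell viability assay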
Description: SANGER: Inhibition of human LC-2-ad cell growth in a cell viability assay.

[29] = system: COR-L88; format: functional, cell-based;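 also: growth inhibition of COR-L88 cells, read out with a cell viability assay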
Description: SANGER: Inhibition of human COR-L88 cell growth in a cell viability assay.

[30] = system: NCI-H1770; format: functional, cell-based;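 also: growth inhibition of NCI-H1770 cells determined with a viability readout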
Description: SANGER: Inhibition of human NCI-H1770 cell growth in a cell viability assay.

[31] = system: ES8; format: functional, cell-based;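 also: growth inhibition of human ES8 cells, read out with a cell viability assay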
Description: SANGER: Inhibition of human ES8 cell growth in a cell viability assay.

[32] = system: A4-Fuk; format: functional, cell-based;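 also: growth inhibition of A4-Fuk cells, read out by a cell viability assay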
Description: SANGER: Inhibition of human A4-Fuk cell growth in a cell viability assay.

[33] = system: LB2518-MEL; format: functional, cell-based;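 also: growth inhibition of human LB2518-MEL cells, measured with a cell viability assay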
Description: SANGER: Inhibition of human LB2518-MEL cell growth in a cell viability assay.

[34] = system: RPMI-8866; format: functional, cell-based
Description: SANGER: Inhibition of human RPMI-8866 cell growth in a cell viability assay.

[35] = system: RXF 393; format: functional, cell-based;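 also: growth inhibition of human RXF 393 cells, read out with a cell viability assay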
Description: SANGER: Inhibition of human RXF393 cell growth in a cell viability assay.

[36] = system: CW-2; format: functional, cell-based;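 also: growth inhibition of CW-2 cells, read out by a cell viability assay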
Description: SANGER: Inhibition of human CW-2 cell growth in a cell viability assay.

[37] = system: UACC-257; format: functional, cell-based
Description: SANGER: Inhibition of human UACC-257 cell growth in a cell viability assay.

[38] = system: JVM-2; format: functional, cell-based;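 also: growth inhibition of JVM-2 cells determined by a cell viability assay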
Description: SANGER: Inhibition of human JVM-2 cell growth in a cell viability assay.

[39] = system: D-502MG; format: functional, cell-based
Description: SANGER: Inhibition of human D-502MG cell growth in a cell viability assay.

[40] = system: KARPAS-299; format: functional, cell-based
Description: SANGER: Inhibition of human KARPAS-299 cell growth in a cell viability assay.

[41] = system: DB; format: functional, cell-based
Description: SANGER: Inhibition of human DB cell growth in a cell viability assay.

[42] = system: HuTu80; format: functional, cell-based, HUTU-80;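 also: growth inhibition of HuTu80 human cells, determined with a cell viability readout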
Description: SANGER: Inhibition of human HUTU-80 cell growth in a cell viability assay.

[43] = system: MOLT-4; format: functional, cell-based;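 also: growth inhibition of MOLT-4 cells, determined with a cell viability readout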
Description: SANGER: Inhibition of human MOLT-4 cell growth in a cell viability assay.

[44] = system: SBC-1; format: functional, cell-based;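 also: cell viability assay measuring growth inhibition of the SBC-1 cell line, IC50 being the concentration that halves growth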
Description: SANGER: Inhibition of human SBC-1 cell growth in a cell viability assay.

[45] = system: ONS-76; format: functional, cell-based;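 also: growth inhibition of human ONS-76 cells, read out with a cell viability assay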
Description: SANGER: Inhibition of human ONS-76 cell growth in a cell viability assay.

[46] = system: GT3TKB; format: functional, cell-based;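 also: growth inhibition of the cell line, read out with a cell viability assay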
Description: SANGER: Inhibition of human GT3TKB cell growth in a cell viability assay.

[47] = system: DEL; format: functional, cell-based;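 also: growth inhibition of the human DEL cell line, read out with a cell viability assay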
Description: SANGER: Inhibition of human DEL cell growth in a cell viability assay.

[48] = system: LOX IMVI; format: functional, cell-based
Description: SANGER: Inhibition of human LOXIMVI cell growth in a cell viability assay.

[49] = system: D283 Med; format: functional, cell-based
Description: SANGER: Inhibition of human D-283MED cell growth in a cell viability assay.

[50] = system: KMOE-2; format: functional, cell-based;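 also: growth inhibition of human KMOE-2 cells, read out with a cell viability assay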
Description: SANGER: Inhibition of human KMOE-2 cell growth in a cell viability assay.

[51] = system: OCUB-M; format: functional, cell-based;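 also: growth inhibition of the cancer cell line, read out through a cell viability assay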
Description: SANGER: Inhibition of human OCUB-M cell growth in a cell viability assay.

[52] = system: GI-ME-N; format: functional, cell-based;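 also: growth inhibition of human GI-ME-N cells, read out with a cell viability assay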
Description: SANGER: Inhibition of human GI-ME-N cell growth in a cell viability assay.

[53] = system: ES3; format: functional, cell-based;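 also: growth inhibition of ES3 cells, read out with a cell viability assay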
Description: SANGER: Inhibition of human ES3 cell growth in a cell viability assay.

[54] = system: NMC-G1; format: functional, cell-based;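 also: growth inhibition of the NMC-G1 cell line, measured with a cell viability read-out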
Description: SANGER: Inhibition of human NMC-G1 cell growth in a cell viability assay.

[55] = system: SW 962; format: functional, cell-based;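 also: growth inhibition of human SW962 cells, read out by a cell viability assay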
Description: SANGER: Inhibition of human SW962 cell growth in a cell viability assay.

[56] = system: LAN-6; format: functional, cell-based;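 also: growth inhibition of LAN-6 cells, determined with a cell viability assay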
Description: SANGER: Inhibition of human LAN-6 cell growth in a cell viability assay.

[57] = system: JAR; format: functional, cell-based;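 also: growth inhibition of human JAR cells determined with a cell viability assay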
Description: SANGER: Inhibition of human JAR cell growth in a cell viability assay.

[58] = system: IST-MES1; format: functional, cell-based;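 also: growth inhibition of IST-MES1 cells, measured with a cell viability assay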
Description: SANGER: Inhibition of human IST-MES1 cell growth in a cell viability assay.

[59] = system: HT-144; format: functional, cell-based
Description: SANGER: Inhibition of human HT-144 cell growth in a cell viability assay.

[60] = system: MHH-PREB-1; format: functional, cell-based;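 also: cell viability assay measuring inhibition of proliferation of human MHH-PREB-1 cells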
Description: SANGER: Inhibition of human MHH-PREB-1 cell growth in a cell viability assay.

[61] = system: HH; format: functional, cell-based
Description: SANGER: Inhibition of human HH cell growth in a cell viability assay.

[62] = system: MEG-01; format: functional, cell-based
Description: SANGER: Inhibition of human MEG-01 cell growth in a cell viability assay.

[63] = system: TE-11; format: functional, cell-based
Description: SANGER: Inhibition of human TE-11 cell growth in a cell viability assay.

[64] = system: A704; format: functional, cell-based
Description: SANGER: Inhibition of human A704 cell growth in a cell viability assay.

[65] = system: IA-LM; format: functional, cell-based
Description: SANGER: Inhibition of human IA-LM cell growth in a cell viability assay.

Work on `Cc1ccc(NC(=O)c2cccc(C(C)(C)C#N)c2)cc1Nc1ccc2ncn(C)c(=O)c2c1` yielded an IC50 [1] of 51.5 nM, an IC50 [2] of over 4000 nM and an IC50 [3] of over 4000 nM. It also gave an IC50 [4] of over 4000 nM, an IC50 [5] of over 4000 nM and an IC50 [6] of over 4000 nM. For the same compound, the IC50 [7] was over 4000 nM, the IC50 [8] was 3230 nM and the IC50 [9] was over 4000 nM. The IC50 [10] was over 4000 nM, the IC50 [11] was 117 nM and the IC50 [12] was over 4000 nM. The IC50 [13] was over 4000 nM, the IC50 [14] was over 4000 nM and the IC50 [15] was 1420 nM. It also gave an IC50 [16] of over 4000 nM, an IC50 [17] of 154 nM and an IC50 [18] of over 4000 nM. For the same compound, the IC50 [19] was over 4000 nM, the IC50 [20] was 448 nM and the IC50 [21] was 134 nM. For the same compound, the IC50 [22] was over 4000 nM, the IC50 [23] was 1990 nM and the IC50 [24] was over 4000 nM. It also gave an IC50 [25] of 2080 nM, an IC50 [26] of over 4000 nM and an IC50 [27] of 132 nM. It also gave an IC50 [28] of over 4000 nM, an IC50 [29] of over 4000 nM and an IC50 [30] of over 4000 nM. It also gave an IC50 [31] of over 4000 nM, an IC50 [32] of 484 nM and an IC50 [33] of 4.76 nM. It also gave an IC50 [34] of over 4000 nM, an IC50 [35] of over 4000 nM and an IC50 [36] of over 4000 nM. The IC50 [37] was 27.5 nM, the IC50 [38] was over 4000 nM and the IC50 [39] was 2260 nM. It also gave an IC50 [40] of over 4000 nM, an IC50 [41] of over 4000 nM and an IC50 [42] of 983 nM. The IC50 [43] was over 4000 nM, the IC50 [44] was over 4000 nM and the IC50 [45] was 167 nM. The IC50 [46] was over 4000 nM, the IC50 [47] was over 4000 nM and the IC50 [48] was over 4000 nM. The IC50 [49] was over 4000 nM, the IC50 [50] was 116 nM and the IC50 [51] was over 4000 nM. The IC50 [52] was 1290 nM, the IC50 [53] was over 4000 nM and the IC50 [54] was over 4000 nM. The IC50 [55] was over 4000 nM, the IC50 [56] was 682 nM and the IC50 [57] was over 4000 nM. The IC50 [58] was over 4000 nM, the IC50 [59] was 6.61 nM and the IC50 [60] was over 4000 nM. It also gave an IC50 [61] of over 4000 nM and an IC50 [62] of 376 nM.
Compound `CC[C@@]1(O)C(=O)OCc2c1cc1n(c2=O)Cc2cc3ccccc3nc2-1` [CAMPTOTHECIN] has an IC50 [2] of 2.58 nM, an IC50 [3] of 33.5 nM and an IC50 [4] of 8.14 nM. The IC50 [6] was 0.586 nM, the IC50 [63] was 16.3 nM and the IC50 [7] was 1.67 nM. The IC50 [8] was 0.775 nM, the IC50 [64] was 15.4 nM and the IC50 [10] was over 100 nM. For the same compound, the IC50 [11] was 8.61 nM, the IC50 [12] was 0.774 nM and the IC50 [13] was 69.9 nM. The IC50 [65] was 12 nM, the IC50 [14] was 1.16 nM and the IC50 [15] was 0.706 nM. For the same compound, the IC50 [16] was 0.274 nM, the IC50 [17] was 3.73 nM and the IC50 [18] was 1.87 nM. For the same compound, the IC50 [19] was 1.78 nM, the IC50 [20] was 1.09 nM and the IC50 [21] was 3.2 nM. The IC50 [23] was 0.602 nM, the IC50 [25] was 75 nM and the IC50 [28] was 2.81 nM. The IC50 [29] was 40.9 nM, the IC50 [31] was 0.796 nM and the IC50 [32] was 1.75 nM. For the same compound, the IC50 [33] was 87.3 nM, the IC50 [34] was 1.72 nM and the IC50 [35] was 4.66 nM. The IC50 [36] was 35.4 nM, the IC50 [38] was over 100 nM and the IC50 [39] was 22.6 nM. For the same compound, the IC50 [40] was over 100 nM, the IC50 [41] was 1.16 nM and the IC50 [42] was 3.38 nM. For the same compound, the IC50 [43] was 1.62 nM, the IC50 [44] was 27.8 nM and the IC50 [45] was 2.41 nM. The IC50 [46] was 1.76 nM, the IC50 [47] was 0.816 nM and the IC50 [48] was 3.72 nM. It also gave an IC50 [49] of 3.2 nM, an IC50 [50] of 11.3 nM and an IC50 [51] of 38.1 nM. The IC50 [52] was 33.9 nM, the IC50 [53] was 0.931 nM and the IC50 [54] was 19.8 nM. The IC50 [55] was 20.5 nM, the IC50 [57] was 14.5 nM and the IC50 [58] was 10.6 nM. The IC50 [59] was 17.9 nM, the IC50 [60] was 2.73 nM and the IC50 [61] was 13.5 nM. It also gave an IC50 [62] of 39.5 nM.

Source: ChEMBL document CHEMBL1201861, “Genomics of Drug Sensitity in Cancer screening data, Wellcome Trust Sanger Institute”
